Experimental data reported in paper PMC5578959, “Selective LRRK2 kinase inhibition reduces phosphorylation of endogenous Rab10 and Rab12 in human peripheral mononuclear blood cells” (Scientific Reports, 2017).

Key:
SMG1 = test system: T1, SMG1; assay: KiNativ profiling in human PBMCs; assay type: binding; details: ATP
T1 construct: purchased ActivX Technologies (KiNativ)
Experimental: (§1) Compounds were shipped to ActivX Technologies (San Diego, US) where LRRK2 target engagement and broad kinase profiling was performed using KiNativ™ procedures. Live cell treatment of human peripheral blood mononuclear cells (PBMCs) at two compound concentrations (1 µM and 0.1 µM) were used to evaluate and compare in vitro target engagement and kinase selectivity, respectively (see Supplementary File 1).

GCK = test system: T2, GCK; assay: KiNativ profiling in human PBMCs; assay type: binding
T2 construct: purchased ActivX Technologies (KiNativ)
Experimental: as §1

PRPK = test system: T3, PRPK; assay: KiNativ profiling in human PBMCs; assay type: binding; details: ATP Loop
T3 construct: purchased ActivX Technologies (KiNativ)
Experimental: as §1

FRAP = test system: T4, FRAP; assay: KiNativ profiling in human PBMCs; assay type: binding; details: ATP
T4 construct: purchased ActivX Technologies (KiNativ)
Experimental: as §1

p38d,p38g = assay: KiNativ profiling in human PBMCs; assay type: binding; details: Lys2
Experimental: as §1

PKCa,PKCb = assay: KiNativ profiling in human PBMCs; assay type: binding; details: Lys2
Experimental: as §1

SYK = test system: T5, SYK; assay: KiNativ profiling in human PBMCs; assay type: binding
T5 construct: purchased ActivX Technologies (KiNativ)
Experimental: as §1

IRAK4 = test system: T6, IRAK4; assay: KiNativ profiling in human PBMCs; assay type: binding
T6 construct: purchased ActivX Technologies (KiNativ)
Experimental: as §1

IKKe,TBK1 = assay: KiNativ profiling in human PBMCs; assay type: binding; details: Lys2
Experimental: as §1

Rab12-pSer106 = assay: Western Blot, cultured immune stimulated human PBMCs; assay type: cell-based; details: 100 nM, 1hr or 24 hrs
LRRK2-pSer935 = target: T7, LRRK2-pSer935 (Homo sapiens, UniProt Q5S007); assay: as above; assay type: cell-based; details: 100 nM, 1hr and 24hrs, n = 10 donors
T7 construct: human primary cells expressing endogenous levels of LRRK2; endogenous in cells; host or cells: human PBMCs from healthy donors
Experimental: PBMC were isolated from fresh blood collected within a maximal time of 4 hours after blood collection. Leucosep tubes (Greiner 227290) was added 15 ml Ficoll (GE Healthcare 17-440-03) and spun 30 s at 1000 × g. Blood was diluted 1:1 using D-PBS 1X (Gibco 14190), transfered to the Leucosep and centrifuged at 800 g for 15 min without brake. The upper layer corresponding to the diluted plasma was removed and the PBMC layer collected using a pipette or by pouring into a clean BD Falcon 50 ml tube. Cells were re-suspended and washed four times with 10 ml of D-PBS 1X (Gibco 14190) followed by centrifugation at 250 g for 10 min with brake at room temperature. The supernatant was discarded and the cells re-suspended in Complete medium equilibrated to 37 °C. The number of dead and living cells were counted on a Nucleocounter and used to calculate percent viability. […]
HEK293 cells were plated at a density of 1 × 10^6 cells/well in 6-well plates pre-coated for 1 hr at 37 °C with poly-L-lysin. […] The proteins were visually detected by infrared imaging using Odyssey CLx (LI-COR, Nebraska, US). Membranes were scanned and band intensities were quantified using the Image Studio version 3.1.4 (LI-COR, Nebraska).

Rab10-pThr73 = assay: as above; assay type: cell-based; details: 100 nM
Experimental: Freshly isolated PBMCs were plated at a density ranging from 7–20 × 10^6 cells in 10 cm petri dishes (Costar 3262) in RPMI-1640 media (Gibco 61870–010) supplemented with 10% non-heat inactivated FBS, 5 ml Antimycotic (Sigma cat:5965) with or without an immune stimulation cocktail consisting of 400 nM phorbol 12-myristate 13-acetate (PMA) and 100 ng/ml interferon-γ (INF-γ). After 48 hrs in culture the cultures were added a fifth of the volume media containing 5x the final concentration of the respective LRRK2 inhibitor with or without PMA and interferon-γ. […] After 72 hrs in culture the PBMC’s were harvested, pelleted and fresh-frozen on dry-ice. An aliquot of PBMCs was used for assessment of PBMC yield and viability.
Cell pellets were resuspended and solubilized in 100 µL lysis buffer (50 mM Tris hydrochloride, 1 mM magnesium chloride, 1% Triton, 0.1% sodium dodecyl sulfate (SDS), pH 8.0) on ice for 20 minutes and then centrifuged at 20,000 g for 30 minutes at 4 °C. The solubilized crude cell lysate was size mobility separated by SDS-polyacrylamide gel electrophoresis (SDS-PAGE). LRRK2 was separated on a 3–8% Tris-Acetate gel (NuPAGE® Tris-Acetate Mini Gels, Life Technologies, Paisley, UK) and Rab10 and Rab12 were separated using a NuPAGE® Novex 4–12% Bis-Tris Gel (Invitrogen, California, US). An amount of 10 µg total protein was loaded in each well. Proteins were transferred to immobilon-FL PVDF membranes (Millipore, Billerica, US). […] The proteins were visually detected by infrared imaging using Odyssey CLx (LI-COR, Nebraska, US). Membranes were scanned and band intensities were quantified using the Image Studio version 3.1.4 (LI-COR, Nebraska).

[1] = test system: kinases other than LRRK2 (off-target kinases); assay: KiNativ broad kinase profiling in human PBMCs; assay type: binding; details: 100 nM
Experimental: as §1

T7 sequence (Q5S007 whole entry): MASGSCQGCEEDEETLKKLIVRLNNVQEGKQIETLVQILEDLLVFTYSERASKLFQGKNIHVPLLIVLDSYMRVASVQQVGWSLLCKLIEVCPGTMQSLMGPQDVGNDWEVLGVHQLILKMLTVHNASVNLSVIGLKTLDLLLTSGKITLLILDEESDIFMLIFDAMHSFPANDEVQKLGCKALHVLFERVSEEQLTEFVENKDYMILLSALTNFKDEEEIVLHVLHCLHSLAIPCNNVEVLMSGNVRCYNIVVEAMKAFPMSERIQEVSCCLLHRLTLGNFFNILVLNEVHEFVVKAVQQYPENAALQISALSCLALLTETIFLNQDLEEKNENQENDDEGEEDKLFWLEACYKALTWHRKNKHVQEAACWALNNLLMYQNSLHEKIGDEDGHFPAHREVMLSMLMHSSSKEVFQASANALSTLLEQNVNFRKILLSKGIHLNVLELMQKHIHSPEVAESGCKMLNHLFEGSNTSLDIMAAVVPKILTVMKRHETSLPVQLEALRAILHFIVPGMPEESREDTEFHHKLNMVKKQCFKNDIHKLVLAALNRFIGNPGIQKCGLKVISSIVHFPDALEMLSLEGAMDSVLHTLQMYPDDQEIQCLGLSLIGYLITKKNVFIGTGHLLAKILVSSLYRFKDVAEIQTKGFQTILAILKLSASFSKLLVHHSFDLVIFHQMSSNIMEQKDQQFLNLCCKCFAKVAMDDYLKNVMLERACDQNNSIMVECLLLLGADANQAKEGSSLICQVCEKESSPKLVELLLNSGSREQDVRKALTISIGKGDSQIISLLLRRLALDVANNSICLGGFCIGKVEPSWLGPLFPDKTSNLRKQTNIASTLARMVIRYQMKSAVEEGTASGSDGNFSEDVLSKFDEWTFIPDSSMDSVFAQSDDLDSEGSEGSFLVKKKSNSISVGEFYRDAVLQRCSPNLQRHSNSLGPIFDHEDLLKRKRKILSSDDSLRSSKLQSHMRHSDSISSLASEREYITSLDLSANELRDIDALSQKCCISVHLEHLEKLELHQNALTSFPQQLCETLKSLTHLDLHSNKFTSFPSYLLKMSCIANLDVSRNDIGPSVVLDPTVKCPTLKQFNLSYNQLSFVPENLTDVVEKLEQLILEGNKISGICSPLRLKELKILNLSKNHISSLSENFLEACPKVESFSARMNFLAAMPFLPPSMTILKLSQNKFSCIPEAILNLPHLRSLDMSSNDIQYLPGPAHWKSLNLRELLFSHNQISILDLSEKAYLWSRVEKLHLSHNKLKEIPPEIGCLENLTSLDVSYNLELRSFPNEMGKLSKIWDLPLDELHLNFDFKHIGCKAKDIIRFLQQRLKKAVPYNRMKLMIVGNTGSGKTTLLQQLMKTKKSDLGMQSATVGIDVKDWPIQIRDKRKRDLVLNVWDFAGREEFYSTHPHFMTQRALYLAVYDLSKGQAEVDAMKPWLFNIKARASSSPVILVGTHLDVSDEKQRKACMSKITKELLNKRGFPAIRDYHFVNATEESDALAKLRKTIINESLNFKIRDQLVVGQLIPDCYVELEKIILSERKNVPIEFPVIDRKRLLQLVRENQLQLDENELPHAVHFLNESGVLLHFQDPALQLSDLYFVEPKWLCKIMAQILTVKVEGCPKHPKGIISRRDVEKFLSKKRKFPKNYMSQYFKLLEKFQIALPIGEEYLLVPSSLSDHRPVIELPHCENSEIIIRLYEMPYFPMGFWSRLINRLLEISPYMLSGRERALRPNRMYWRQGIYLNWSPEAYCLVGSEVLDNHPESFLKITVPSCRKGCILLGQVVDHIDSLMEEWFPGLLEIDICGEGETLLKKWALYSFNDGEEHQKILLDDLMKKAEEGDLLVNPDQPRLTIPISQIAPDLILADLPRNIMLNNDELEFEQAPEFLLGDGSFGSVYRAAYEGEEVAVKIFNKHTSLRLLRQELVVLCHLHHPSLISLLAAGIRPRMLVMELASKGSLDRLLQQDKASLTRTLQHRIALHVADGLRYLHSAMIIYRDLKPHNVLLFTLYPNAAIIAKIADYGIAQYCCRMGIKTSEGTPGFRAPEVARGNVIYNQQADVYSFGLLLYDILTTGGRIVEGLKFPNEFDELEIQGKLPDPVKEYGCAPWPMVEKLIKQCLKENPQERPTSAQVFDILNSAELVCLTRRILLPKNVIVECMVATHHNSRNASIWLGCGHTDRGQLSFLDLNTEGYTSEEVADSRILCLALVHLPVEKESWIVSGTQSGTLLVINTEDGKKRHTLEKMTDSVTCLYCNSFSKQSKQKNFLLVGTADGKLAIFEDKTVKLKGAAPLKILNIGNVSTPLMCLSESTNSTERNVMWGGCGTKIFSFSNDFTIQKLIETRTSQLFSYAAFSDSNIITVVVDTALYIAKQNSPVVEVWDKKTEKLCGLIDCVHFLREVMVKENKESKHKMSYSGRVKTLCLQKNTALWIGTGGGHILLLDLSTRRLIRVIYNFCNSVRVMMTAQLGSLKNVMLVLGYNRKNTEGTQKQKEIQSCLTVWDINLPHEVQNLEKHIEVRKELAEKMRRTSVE

Cc1cccc(-c2cc(Nc3ccn(C)n3)nc3[nH]cc(C#N)c23)c1 [Lu AF58786]
Inhibition (SMG1; 0.1 µM, DTVTIHSVGGTITILPTKTKPK): -6.3% | Inhibition (SMG1; 0.1 µM, SYPYLFKGLEDLHLDER): 12.6% | Inhibition (SMG1; 1 µM, DTVTIHSVGGTITILPTKTKPK): -13.9% | Inhibition (SMG1; 1 µM, SYPYLFKGLEDLHLDER): 4.3% | Inhibition (GCK; 0.1µM, Lys1): 14.1% | Inhibition (GCK; 0.1µM, Lys2): 16.9% | Inhibition (GCK; 1µM, Lys1): 5.5% | Inhibition (GCK; 1µM, Lys2): -3.1% | Inhibition (PRPK; 0.1µM): 1.0% | Inhibition (PRPK; 1µM): 8.9% | Inhibition (FRAP; 0.1µM): 5.2% | Inhibition (FRAP; 1µM): -3.4% | Inhibition (p38d,p38g; 0.1µM): 7.1% | Inhibition (p38d,p38g; 1µM): -0.541% | Inhibition (PKCa,PKCb; 0.1µM): -5.7% | Inhibition (PKCa,PKCb; 1µM): -0.9% | Inhibition (SYK; 0.1µM, Activation Loop): 8.3% | Inhibition (SYK; 0.1µM, Lys1): 12.8% | Inhibition (SYK; 1µM, Lys1): -5.9% | Inhibition (IRAK4; 0.1µM, Lys1): 16.2% | Inhibition (IRAK4; 0.1µM, Lys2): 7.0% | Inhibition (IRAK4; 1µM, Lys1): 13.3% | Inhibition (IRAK4; 1µM, Lys2): 8.9% | Inhibition (IKKe,TBK1; 0.1µM): -16.4% | Inhibition (IKKe,TBK1; 1µM): -9.8% | inhibition of Rab12 phosphorylation (Rab12-pSer106) (Rab12-pSer106): not able to significant inhibit | LRRK2 kinase inhibition (LRRK2-pSer935/total LRRK2) (LRRK2-pSer935): confirmed | inhibition of Rab10 phosphorylation (Rab10-pThr73/total Rab10) (Rab10-pThr73; 1 hr): not at 1 hr | inhibition of Rab10 phosphorylation (Rab10-pThr73/total Rab10) (Rab10-pThr73; 24 hrs): able to inhibit Rab10 phosphorylation at 24 hrs | inhibition of other kinases ([1]; human PBMCs): no inhibition

Cn1cc(-c2c[nH]c3ncnc(N4CCOCC4)c23)cc1C#N [PFE-360]
% Inhibition (SMG1; 0.1µM, peptide DTVTIHSVGGTITILPTKTKPK): -4.6% | % Inhibition (SMG1; 0.1µM, peptide SYPYLFKGLEDLHLDER): 7% | % Inhibition (SMG1; 1µM, peptide DTVTIHSVGGTITILPTKTKPK): -3% | % Inhibition (SMG1; 1µM, peptide SYPYLFKGLEDLHLDER): -11.6% | % Inhibition (GCK; 0.1µM, Lys1): 7.4% | % Inhibition (GCK; 0.1µM, Lys2): 6.5% | % Inhibition (GCK; 1µM, Lys1): 11.4% | % Inhibition (GCK; 1µM, Lys2): -7.7% | % Inhibition (PRPK; 0.1µM): 2.6% | % Inhibition (PRPK; 1µM): 8.1% | % Inhibition (FRAP; 0.1µM): -1.2% | % Inhibition (p38d,p38g; 0.1µM): 0.8% | % Inhibition (p38d,p38g; 1µM): -7.7% | % Inhibition (PKCa,PKCb; 0.1µM): -32.8% | % Inhibition (PKCa,PKCb; 1µM): -10.6% | % Inhibition (SYK; 0.1µM, Activation Loop): 1.9% | % Inhibition (SYK; 0.1µM, Lys1): 0.1% | % Inhibition (SYK; 1µM, Activation Loop): -4.4% | % Inhibition (SYK; 1µM, Lys1): -13% | % Inhibition (IRAK4; 0.1µM, Lys1): 4.1% | % Inhibition (IRAK4; 0.1µM, Lys2): 8% | % Inhibition (IRAK4; 1µM, Lys1): -0.3% | % Inhibition (IRAK4; 1µM, Lys2): 1.4% | % Inhibition (IKKe,TBK1; 0.1µM): -25.5% | % Inhibition (IKKe,TBK1; 1µM): 16% | inhibition of Rab12 phosphorylation (Rab12-pSer106) (Rab12-pSer106): not able to significant inhibit | LRRK2 kinase inhibition (LRRK2-pSer935/total LRRK2) (LRRK2-pSer935): confirmed | inhibition of Rab10 phosphorylation (Rab10-pThr73/total Rab10) (Rab10-pThr73; 1 hr): not at 1 hr | inhibition of Rab10 phosphorylation (Rab10-pThr73/total Rab10) (Rab10-pThr73; 24 hrs): able to inhibit Rab10 phosphorylation at 24 hrs | inhibition of off-target kinases ([1]; acutely isolated human PBMCs): ≤ 60%
